Literature values as cited in patent US11819485B2, “Levodopa fractionated dose composition and use” (AVION PHARMACEUTICALS, LLC, priority 2018, dated 2023).
Like-named read-outs stand apart in the source and are kept apart here.

How the values were obtained:
[1] = steady intravenous dose, plasma LD kept within efficacy-with-no-MRCs range, as long as the infusion lasted
[2] = not given; remark: listed apart in the source

## N[C@@H](Cc1ccc(O)c(O)c1)C(=O)O [LD, Levodopa]
[1]
  antiparkinsonian effect and dyskinesias during infusion: full antiparkinsonian effect (no wearing off) without any dyskinesias
other
  solubility in water: poorly soluble in water
[2]; beginning of the disease, orally administered LD
  duration of effect of each LD dose: 6 h
[2]; early stages of the disease
  duration of effect of each dose: approximately 6 hours
[2]; ultimately, as PD progresses
  duration of effect of each dose: about 1.5 hours
